# Tested on: α7 integrin promoter
# Assay: muscle cell-based assay: α7βgal+/− myoblasts/myotubes, LacZ reporter, β-galactosidase cleavage of FDG
# Design: species or system mouse; Results in α7+/− β-galactosidase assay: scale not given here
# Settings: Myotubes; for Results in a α7+/− β-galactosidase assay, Myotubes, 0.5 uM: compound at 0.5 uM; for Results in a α7+/− β-galactosidase assay, Myotubes, 1 uM: compound at 1 uM; for Results in a α7+/− β-galactosidase assay, Myotubes, 5 uM: compound at 5 uM; for Results in a α7+/− β-galactosidase assay, Myotubes, 10 uM: compound at 10 uM; for Results in a α7+/− β-galactosidase assay, Myotubes, 20 uM: compound at 20 uM; for Results in a α7+/− β-galactosidase assay, Myotubes, 40 uM: compound at 40 uM
# Method in brief: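 Primary α7βgal+/− mouse myoblasts (LacZ knocked into α7 integrin exon 1, promoter retained), differentiated; promoter activity read as β-galactosidase conversion of non-fluorescent FDG to fluorescein. Hits followed by dose-response, western analysis and myostatin counterscreen.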
Compound,"Results in a α7+/− β-galactosidase assay, Myotubes, 0.5 uM","Results in a α7+/− β-galactosidase assay, Myotubes, 1 uM","Results in a α7+/− β-galactosidase assay, Myotubes, 5 uM","Results in a α7+/− β-galactosidase assay, Myotubes, 10 uM","Results in a α7+/− β-galactosidase assay, Myotubes, 20 uM","Results in a α7+/− β-galactosidase assay, Myotubes, 40 uM",Results in α7+/− β-galactosidase assay (0.5 uM),Results in α7+/− β-galactosidase assay (1 uM),Results in α7+/− β-galactosidase assay (5 uM),Results in α7+/− β-galactosidase assay (10 uM),Results in α7+/− β-galactosidase assay (20 uM),Results in α7+/− β-galactosidase assay (40 uM)
c1ccc(-c2cn3c4c(sc3n2)CCCC4)cc1 [drawing 490],−0.06339,0.06029,−0.3683,−0.08198,−0.09547,0.1666,,,,,,
COc1ccccc1CC(=O)Nc1cc(S(=O)(=O)N2CCOCC2)ccc1N1CCOCC1 [drawing 491],0.003263,0.04702,−0.2793,0.1263,−0.1143,0.0714,,,,,,
COc1ccccc1/C=C1\C(=O)Nc2ccccc21 [drawing 492],−0.03334,0.08625,−0.2626,0.09022,−0.05273,0.2894,,,,,,
CN1C(=O)N(CC(=O)N2CCN(S(=O)(=O)c3ccc(Cl)s3)CC2)C(=O)C12CCCCC2 [drawing 493],0.02298,0.1534,−0.342,0.1222,−0.2548,−0.1971,,,,,,
Cn1cc(CN2CCC(C(=O)Nc3cccc(-c4cscn4)c3)CC2)cn1 [drawing 494],−0.07662,0.03293,−0.2802,0.1352,−0.1701,0.00319,,,,,,
O=C1Cc2ccccc2/C1=C\c1ccc([N+](=O)[O-])cc1 [drawing 495],−0.06418,−0.0268,−0.312,0.004591,−0.246,−0.2389,,,,,,
CCCC(=O)OCC(=O)c1[nH]c(C)c(C(C)=O)c1C [drawing 496],−0.1192,−0.0136,−0.3312,−0.02935,−0.1657,−0.01124,,,,,,
CCO/C(C)=C1\C(=O)Nc2ccccc21 [drawing 497],−0.1394,0.0259,−0.3175,−0.219,−0.1574,0.04819,,,,,,
COc1ccc(C(=O)Nc2ccc(Cl)cn2)cc1Cl [drawing 498],0.01557,−0.1102,−0.4051,−0.6189,−0.2285,−0.2585,,,,,,
CCOc1ccccc1NC(=O)c1cccc2c1C(=O)N(C1CCCCC1)C2 [drawing 499],0.0377,−0.1345,−0.3317,−0.3744,−0.1769,−0.1762,,,,,,
CCOC(=O)C1CCCN(C(=O)CNS(=O)(=O)c2ccc(Br)s2)C1 (stereo not drawn) [drawing 500],−0.02306,0.05901,−0.3059,−0.1617,−0.03881,−0.02855,,,,,,
Cc1nnc(SCC(=O)c2ccc(Br)cc2)s1 [drawing 501],−0.07126,0.01886,−0.2188,−0.3746,−0.08999,0.006174,,,,,,
Cn1ccc(C(=O)Nc2cccnc2Cl)n1 [drawing 502],0.04794,−0.05775,0.0198,0.06627,−0.1124,−0.1256,,,,,,
CCOC(=O)c1sc(=N)n(-c2ccc(OC)cc2)c1C [drawing 503],0.01467,−0.0655,−0.3446,−0.2817,−0.1985,−0.1785,,,,,,
COc1c(Cl)cc(/C=C2\C(=O)Nc3ccccc32)cc1Cl [drawing 504],−0.04389,−0.02066,−0.212,−0.2296,−0.06953,−0.1103,,,,,,
COc1c(Cl)cc(/C=C2\C(=O)Nc3ccccc32)cc1Cl [drawing 505],−0.1548,−0.1313,−0.4088,−0.5935,−0.3163,−0.3432,,,,,,
CC(=O)Oc1c(Cl)cc(/C=C2\C(=O)Nc3ccccc32)cc1Cl [drawing 506],−0.05659,−0.06941,−0.2138,−0.4615,−0.2526,−0.403,,,,,,
CCN(CC)CCNC(=O)c1c(C)[nH]c(CC2C(=O)Nc3ccc(F)cc32)c1C (stereo not drawn) [drawing 507],−0.07384,−0.08032,−0.9266,−1.896,−0.9097,−0.9224,,,,,,
O=C1Nc2ccccc2/C1=C1\Nc2ccccc2C1=O [drawing 508],,,,,,,−0.08969,−0.08698,−0.493,−0.5852,−0.318,−0.3129
Cc1[nH]c(/C=C2\C(=O)Nc3ccccc32)c(C)c1CCC(=O)O [drawing 509],,,,,,,0.04928,0.07615,−0.501,−0.6162,−0.2542,−0.3688
Cc1cc(C)c(/C=C2\C(=O)Nc3ccccc32)[nH]1 [drawing 510],,,,,,,−0.2205,−0.08303,−0.5223,−0.3378,−0.232,−0.06918
Cc1cc(C)c(/C=C2\C(=O)Nc3ccccc32)[nH]1 [drawing 512],,,,,,,−0.1661,−0.09119,−0.3196,0.09661,−0.05031,0.151
Cc1cc(C)c(/C=C2\C(=O)Nc3ccccc32)[nH]1 [drawing 513],,,,,,,−0.1009,−0.09355,0.09724,1.02,0.05028,0.1378
O=C1Nc2ccccc2/C1=C1/Nc2ccccc2/C1=N\O [drawing 514],,,,,,,−0.111,−0.1122,−0.8688,−1.081,−0.5041,−0.6481
CCN(CC)CCNC(=O)c1c(C)[nH]c(CC2C(=O)Nc3ccc(F)cc32)c1C (stereo not drawn) [drawing 515],,,,,,,−0.04962,−0.02655,−0.4387,−1.86,−0.9178,0.9191
